# Measured values reported in PMC10855879, “Formulation Studies with Cyclodextrins for Novel Selenium NSAID Derivatives” (International Journal of Molecular Sciences, 2024).
# “Also recorded” adds a separate entry of the source. Read-outs that look alike come from different tables or passages of the source.
# How the values were obtained:
# [1] = Water solubility by quantitative 1H-NMR in D2O, alone or with cyclodextrin; format: physicochemical; conditions: for solubility: 25 °C, thermodynamic from solid, 298 K; for Improvement of water solubility after exposure to β- and γ-CD (in words): complexes versus compounds alone
# Method: For all the Se-NSAID derivatives, the formation of inclusion complexes either with β- or γ-CDs was evaluated by quantitative proton nuclear magnetic resonance (^1H-NMR) spectroscopy (Figures S1–S40 in Supplementary Materials). The election for such CDs is based on the fact that β-CD is one of the most frequently used CDs for encapsulating NSAIDs. Additionally, given the size of the studied molecules, a larger CD such as γ-CDs was also evaluated.
# The experimental formation of inclusion complexes with either β-CD or γ-CD was evaluated via quantitative ^1H-NMR spectroscopy. This method is based on the consideration that the integration for a given signal that is selected as a marker for a given compound is proportional to its concentration. Consequently, solutions of 0.5 mL in D2O (≥99.85% in deuterated component) with an excess of each compound were prepared, along with either 4 mg of dimethyl sulfone (as internal standard) or with the corresponding CD at 10 mM. ^1H-NMR spectra were recorded at 298 K on a Bruker Avance Neo at a proton resonance frequency of 400 MHz. The solubilities were calculated considering the ratio between the area of the peaks belonging to the internal standard or the CDs and the different hydrogens of the Se-NSAID derivatives.
# colon cancer = system: colon cancer; set-up: method as in PMID 37759969; conditions: in vitro and in vivo; cited from earlier work
# [2] = water, D2O, compound alone, dimethyl sulfone internal standard, read-out: Water Solubility, Compound
# [3] = D2O with β-cyclodextrin, aqueous with cosolvent or surfactant or cyclodextrin, D2O, β-CD 10 mM, read-out: Water Solubility, Compound + β-CD
# [4] = D2O with γ-cyclodextrin, aqueous with cosolvent or surfactant or cyclodextrin, D2O, γ-CD 10 mM, read-out: Water Solubility, Compound + γ-CD
SMILES,"solubility [1, 2] [µM]","solubility [1, 3] [µM]","solubility [1, 4] [µM]",Improvement of water solubility after exposure to β- and γ-CD (in words) [1],"Increase in water solubility with β-CD ([1]; versus compound alone, D2O)","Increase in water solubility with γ-CD ([1]; versus compound alone, D2O) [fold]",Anticancer properties (in words) (colon cancer)
COc1ccc2cc(C(C)C(=O)[Se]CCC#N)ccc2c1 (centres unmarked) [I.3e],9.7,992,273,remarkable improvement; also recorded: remarkable increase; also recorded: almost two orders of magnitude,,,
COc1ccc2c(c1)c(CC(=O)[Se]CC(=O)O)c(C)n2C(=O)c1ccc(Cl)cc1 [I.4a],22.4,56.5,52.4,,,,
COC(=O)C[Se]C(=O)Cc1c(C)n(C(=O)c2ccc(Cl)cc2)c2ccc(OC)cc12 [I.4b],12,157,43.9,,,,
COc1ccc2c(c1)c(CC(=O)[Se]CC#N)c(C)n2C(=O)c1ccc(Cl)cc1 [I.4d],20,45.3,33.7,,,,
COc1ccc2c(c1)c(CC(=O)[Se]CCC#N)c(C)n2C(=O)c1ccc(Cl)cc1 [I.4e],5.72,45.5,42.1,,,,
CC(=O)Oc1ccccc1C(=O)[Se][Se]C(=O)c1ccccc1OC(C)=O [II.1],8.43,101,15.1,,,,
COc1ccc2c(c1)c(CC(=O)[Se][Se]C(=O)Cc1c(C)n(C(=O)c3ccc(Cl)cc3)c3ccc(OC)cc13)c(C)n2C(=O)c1ccc(Cl)cc1 [II.2],0.132,7.96,7.6,,,,
COc1ccc2cc([C@H](C)C(=O)[Se][Se]C(=O)[C@@H](C)c3ccc4cc(OC)ccc4c3)ccc2c1 [II.3],0.605,0.219,6.14,,,,
CC(C(=O)[Se][Se]C(=O)C(C)c1cccc(C(=O)c2ccccc2)c1)c1cccc(C(=O)c2ccccc2)c1 (centres unmarked) [II.4],5.57,27,17.7,,,,
CC(C)Cc1ccc(C(C)C(=O)[Se][Se]C(=O)C(C)c2ccc(CC(C)C)cc2)cc1 (centres unmarked) [II.5],21.2,5420,7500,remarkable improvement; also recorded: remarkable increase; also recorded: almost two orders of magnitude,up to 250 fold,≤ 350,potent anticancer properties
